Results from patent US20230019491A1, “PYRIMIDINE TBK/IKKe INHIBITOR COMPOUNDS AND USES THEREOF” (Merck Patent GmbH, priority 2017, published 2023).
Like-named read-outs stand apart in the source and are kept apart here.

Assays:
[1] = biological target: T1, IKKε (Homo sapiens, UniProt Q14164); test: IKKε biochemical assay; details: 30 uM top concentration, 90 min at 25° C., LabChip EZ Reader II
T1 sequence (Q14164 1-716): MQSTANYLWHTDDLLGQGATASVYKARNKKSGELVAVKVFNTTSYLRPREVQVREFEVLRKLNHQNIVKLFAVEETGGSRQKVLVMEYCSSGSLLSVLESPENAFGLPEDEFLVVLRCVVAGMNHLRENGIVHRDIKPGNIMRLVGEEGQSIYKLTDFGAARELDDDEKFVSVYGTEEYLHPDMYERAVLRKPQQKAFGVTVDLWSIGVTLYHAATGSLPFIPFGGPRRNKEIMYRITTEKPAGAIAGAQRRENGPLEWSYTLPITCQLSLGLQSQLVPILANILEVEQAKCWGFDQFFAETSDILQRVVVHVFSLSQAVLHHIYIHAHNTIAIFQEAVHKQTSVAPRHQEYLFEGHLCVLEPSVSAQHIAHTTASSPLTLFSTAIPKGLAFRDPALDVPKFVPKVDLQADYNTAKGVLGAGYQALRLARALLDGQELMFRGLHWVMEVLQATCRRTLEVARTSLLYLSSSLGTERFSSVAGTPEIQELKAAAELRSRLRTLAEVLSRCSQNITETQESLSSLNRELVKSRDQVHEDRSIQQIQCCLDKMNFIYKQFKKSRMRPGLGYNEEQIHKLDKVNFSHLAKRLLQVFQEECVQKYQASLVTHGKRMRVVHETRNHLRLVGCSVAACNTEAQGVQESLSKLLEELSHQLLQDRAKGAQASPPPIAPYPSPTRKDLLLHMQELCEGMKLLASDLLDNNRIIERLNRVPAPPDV
Method: (§1) Test compounds were transferred into Labcyte polypropylene 384 well plates (P055-25) and diluted to 3 mM using DMSO. […] 100 uM of a reference compound (1 uM final high concentration). Backfilling was performed if necessary so that all wells contain 1% DMSO final:
(§2) add 75 nl DMSO/well into columns 1, 2 and 24 using Labcyte Echo. add 75 nl 1.0 mM staurosporine/well into column 23 using Labcyte Echo (10 uM final) add 4.5 ul enzyme/well using multidrop dispenser add 3 ul substrate/well using multidrop dispenser incubate at 25° C. for 90 min. add 7.5 ul 2× stop buffer read on labchip ez reader II using IKKε.
(§3) Raw data files were opened in the Caliper LabChip Reviewer program (Version 3.0.265.0 SP2) and peak assignments were adjusted to reflect “substrate first” with the software's post-run analysis options. A spline-fit baseline was applied using the software's analysis algorithm.

[2] = biological target: T2, TBK1 (Homo sapiens, UniProt Q9UHD2); test: TBK biochemical assay
T2 sequence (Q9UHD2 1-729): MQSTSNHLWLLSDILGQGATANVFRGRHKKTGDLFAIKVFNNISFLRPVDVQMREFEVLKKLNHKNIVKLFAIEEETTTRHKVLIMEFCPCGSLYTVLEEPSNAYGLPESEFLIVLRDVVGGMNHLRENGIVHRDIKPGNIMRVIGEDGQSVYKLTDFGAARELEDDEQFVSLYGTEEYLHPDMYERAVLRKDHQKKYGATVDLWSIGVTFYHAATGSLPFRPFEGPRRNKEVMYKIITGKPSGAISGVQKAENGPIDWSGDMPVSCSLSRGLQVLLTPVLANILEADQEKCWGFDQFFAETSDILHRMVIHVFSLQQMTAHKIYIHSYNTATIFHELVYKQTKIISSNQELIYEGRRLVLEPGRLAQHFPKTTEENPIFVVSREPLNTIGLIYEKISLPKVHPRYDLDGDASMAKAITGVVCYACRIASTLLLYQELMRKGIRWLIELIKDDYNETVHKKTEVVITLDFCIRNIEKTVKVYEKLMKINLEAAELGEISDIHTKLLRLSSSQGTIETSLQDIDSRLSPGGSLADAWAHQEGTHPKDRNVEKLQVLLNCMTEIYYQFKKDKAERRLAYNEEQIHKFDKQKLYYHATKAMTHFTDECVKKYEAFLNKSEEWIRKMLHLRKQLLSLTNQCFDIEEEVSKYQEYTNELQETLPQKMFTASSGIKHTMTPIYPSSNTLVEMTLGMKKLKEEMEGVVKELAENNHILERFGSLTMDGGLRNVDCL
Method: as §1
as §2, with “C. in Heidolph incubator” for “C.”, “buffer using multidrop dispenser” for “buffer”, “TBK1.job” for “IKKε.”
as §3

[3] = 10 point 1:4 dose response, read-out: IKKε_IC50
[4] = 10 point 1:4 dose response, 30 uM top concentration, 90 min at 25° C., LabChip EZ Reader II, read-out: TBK1_IC50

Row | Compound | IC50 [1, 3] [nM] | IC50 [2, 4] [nM] | IC50 ([1]; IKKε_IC50, 10 point 1:4 dose response) [nM] | IC50 [2] [nM]
1 | COc1nc(Nc2nccc(-c3ccc(OC4CCN(C(=O)[C@@H](C)O)CC4(F)F)c(C#N)c3)n2)ccc1N1CCN(C)CC1C (stereo in doubt) [Example 110, 2-[3,3-Difluoro-1-((R)-2-hydroxy-propionyl)-piperidin-4-yloxy]-5-{2-[5-((S)-2,4-dimethyl-piperazin-1-yl)-6-methoxy-pyridin-2-ylamino]-pyrimidin-4-yl}-benzonitrile] | < 100 | < 100 | – | –
2 | COc1nc(Nc2nccc(-c3ccc(OC4CCN(C(=O)[C@H](C)O)CC4(F)F)c(C#N)c3)n2)ccc1N1CCN(C)CC1C (stereo in doubt) [Example 112, 2-[3,3-Difluoro-1-((S)-2-hydroxy-propionyl)-piperidin-4-yloxy]-5-{2-[5-((S)-2,4-dimethyl-piperazin-1-yl)-6-methoxy-pyridin-2-ylamino]-pyrimidin-4-yl}-benzonitrile] | < 100 | < 100 | – | –
3 | COc1nc(Nc2nccc(-c3ccc(OC4CCN(C(=O)C(C)O)CC4(F)F)c(C#N)c3)n2)ccc1N1CCN(C2COC2)CC1 (stereo in doubt) [Example 261, 2-([3,3-difluoro-1-[(2S)-2-hydroxypropanoyl]piperidin-4-yl]oxy)-5-[2-([6-methoxy-5-[4-(oxetan-3-yl)piperazin-1-yl]pyridin-2-yl]amino)pyrimidin-4-yl]benzonitrile] | < 100 | < 100 | – | –
4 | COc1nc(Nc2ncc(F)c(-c3ccc(O[C@H]4CCN(C(=O)C(C)O)C[C@H]4F)c(C#N)c3)n2)ccc1N1CCN(C2COC2)CC1 (stereo in doubt) [Example 297, 2-{[3-fluoro-1-(2-hydroxypropanoyl)piperidin-4-yl]oxy}-5-[5-fluoro-2-({6-methoxy-5-[4-(oxetan-3-yl)piperazin-1-yl]pyridin-2-yl}amino)pyrimidin-4-yl]benzonitrile] | < 100 | < 100 | – | –
5 | COc1cc(Nc2nccc(-c3ccc(OC4CCN(C(=O)C(C)O)CC4(F)F)c(C#N)c3)n2)ccn1 (stereo in doubt) [Example 327, 2-([3,3-difluoro-1-[(2S)-2-hydroxypropanoyl]piperidin-4-yl]oxy)-5-[2-[(2-methoxypyridin-4-yl)amino]pyrimidin-4-yl]benzonitrile] | < 100 | < 100 | – | –
6 | COc1cccc(Nc2nccc(-c3ccc(OC4CCN(C(=O)C(C)O)CC4(F)F)c(C#N)c3)n2)n1 (stereo in doubt) [Example 328, 2-([3,3-difluoro-1-[(2S)-2-hydroxypropanoyl]piperidin-4-yl]oxy)-5-[2-[(6-methoxypyridin-2-yl)amino]pyrimidin-4-yl]benzonitrile] | < 100 | < 100 | – | –
7 | COc1nc(Nc2nccc(-c3ccc(OC4CCOCC4)c(C#N)c3)n2)ccc1C(=O)N(C)C [Example 1, 6-([4-[3-cyano-4-(oxan-4-yloxy)phenyl]pyrimidin-2-yl]amino)-2-methoxy-N,N-dimethylpyridine-3-carboxamide] | < 100 | < 100 | – | –
8 | COc1nc(Nc2nccc(-c3ccc(OC4CCOCC4)c(C#N)c3)n2)ccc1C(=O)NCCO [Example 2, 6-([4-[3-cyano-4-(oxan-4-yloxy)phenyl]pyrimidin-2-yl]amino)-N-(2-hydroxyethyl)-2-methoxypyridine-3-carboxamide] | < 100 | < 100 | – | –
9 | COc1nc(Nc2nccc(-c3ccc(OC4CCOCC4)c(C#N)c3)n2)ccc1C(=O)N(C)CCO [Example 3, 6-([4-[3-cyano-4-(oxan-4-yloxy)phenyl]pyrimidin-2-yl]amino)-N-(2-hydroxyethyl)-2-methoxy-N-methylpyridine-3-carboxamide] | < 100 | < 100 | – | –
10 | COc1nc(Nc2nccc(-c3ccc(OC4CCOCC4)c(C#N)c3)n2)ccc1C(=O)NC[C@H](O)CO [Example 4, 6-{4-[3-Cyano-4-(tetrahydro-pyran-4-yloxy)-phenyl]-pyrimidin-2-ylamino}-N-((S)-23-dihydroxy-propyl)-2-methoxy-nicotinamide] | < 100 | < 100 | – | –
11 | COc1nc(Nc2nccc(-c3ccc(OC4CCOCC4)c(C#N)c3)n2)ccc1C(=O)N1CCS(=O)(=O)CC1 [Example 5, 5-{2-[5-(1,1-Dioxo-thiomorpholine-4-carbonyl)-6-methoxy-pyridin-2-ylamino]-pyrimidin-4-yl}-2-(tetrahydro-pyran-4-yloxy)-benzonitrile] | < 100 | < 100 | – | –
12 | COc1nc(Nc2nccc(-c3ccc(OC4CCOCC4)c(C#N)c3)n2)ccc1C(=O)N1CCNC(=O)C1 [Example 6, 5-{2-[6-methoxy-5-(3-oxo-piperazine-1-carbonyl)-pyridin-2-ylamino]-pyrimidin-4-yl}-2-(tetrahydro-pyran-4-yloxy)-benzonitrile] | < 100 | < 100 | – | –
13 | COc1nc(Nc2nccc(-c3ccc(OC4CCOCC4)c(C#N)c3)n2)ccc1C(=O)N1CC2CC(C1)O2 [Example 7, 5-(2-[[6-methoxy-5-([6-oxa-3-azabicyclo[3.1.1]heptan-3-yl]carbonyl)pyridin-2-yl]amino]pyrimidin-4-yl)-2-(oxan-4-yloxy)benzonitrile] | – | – | < 100 | < 100
14 | COc1nc(Nc2nccc(-c3ccc(OC4CCOCC4)c(C#N)c3)n2)ccc1C(=O)NC1C2COCC21 (centres unmarked) [Example 8, 6-([4-[3-cyano-4-(oxan-4-yloxy)phenyl]pyrimidin-2-yl]amino)-2-methoxy-N-[3-oxabicyclo[3.1.0]hexan-6-yl]pyridine-3-carboxamide] | < 100 | < 100 | – | –
15 | COc1nc(Nc2nccc(-c3ccc(OC4CCOCC4)c(C#N)c3)n2)ccc1C(=O)NC1CCCC1O (centres unmarked) [Example 9, 6-{4-[3-Cyano-4-(tetrahydro-pyran-4-yloxy)-phenyl]-pyrimidin-2-ylamino}-N-(2-hydroxy-cyclopentyl)-2-methoxy-nicotinamide] | < 100 | < 100 | – | –
16 | COc1nc(Nc2nccc(-c3ccc(OC4CCOCC4)c(C#N)c3)n2)ccc1C(=O)N1CC2CCC(C1)O2 [Example 10, 5-(2-[[6-methoxy-5-([8-oxa-3-azabicyclo[3.2.1]octan-3-yl]carbonyl)pyridin-2-yl]amino]pyrimidin-4-yl)-2-(oxan-4-yloxy)benzonitrile] | < 100 | < 100 | – | –
17 | COc1nc(Nc2nccc(-c3ccc(OC4CCOCC4)c(C#N)c3)n2)ccc1C(=O)N1CC2CCC1CO2 (centres unmarked) [Example 11, 5-(2-[[6-methoxy-5-([2-oxa-5-azabicyclo[2.2.2]octan-5-yl]carbonyl)pyridin-2-yl]amino]pyrimidin-4-yl)-2-(oxan-4-yloxy)benzonitrile] | < 100 | < 100 | – | –
18 | COc1nc(Nc2nccc(-c3ccc(O[C@H]4CCN(C(=O)[C@H](C)O)CC4(F)F)c(C#N)c3)n2)ccc1N1CCN(C2COC2)CC1 [Example 121, 2-[[(4S)-3,3-difluoro-1-[(2S)-2-hydroxypropanoyl]piperidin-4-yl]oxy]-5-[2-([6-methoxy-5-[4-(oxetan-3-yl)piperazin-1-yl]pyridin-2-yl]amino)pyrimidin-4-yl]benzonitrile] | – | < 100 | – | –
